# Measured values published in patent US12662688B2, “Site-selective deuteration of amino acids through dual protein catalysis” (Wisconsin Alumni Research Foundation, priority 2022, dated 2026).
# What was measured:
# DsaD-MfnH protein pair = test: Analytical-scale H/D exchange with purified DsaD and MfnH; format: biochemical, Streptomyces scopuliridis; Streptomyces drozdowiczii; conditions: 5 μM DsaD, 50 μM MfnH (1:10 DsaD:MfnH)
# Procedure: FIG. 4. Deuteration of L-Leu using purified DsaD (5 μM) and MfnH (50 μM) using the described procedure for analytical-scale H/D exchange. Results are reported as the average of 2 trials.
# (§1) General procedure analytical scale deuteration reactions: α/β deuteration reactions were performed as follows. A 1 mL Eppendorf tube was charged with amino acid (10-20 mM final concentration), Na3PO4 buffer pD 8.4 (50 mM final concentration), PLP (100 μM final concentration), purified enzymes or appropriate lysate and D2O and to the appropriate final volume (typically 50 μL). Reactions were carried out at 37° C. for 8 h and quenched by the addition of 3 volumes of acetonitrile. Precipitated biomolecules were pelleted by centrifugation (16,000×g, 10 min) and samples were processed as described below.
# In the original report by Li et al. describing DsaE, a homologous enzyme with 42% sequence identity, MfnH, was disclosed.^29 This homolog could operate with DsaD to catalyze Cβ-epimerization of Ile. Here, we test the ability of MfnH to productively catalyze H/D exchange reactions. We performed reactions with purified MfnH, DsaD (1:10 DsaD:MfnH), and L-Leu under the conditions described for DsaD/E-catalyzed reactions (FIG. 4). […] We also attempted isolation of MfnO, the native BCAT partner of MfnH, but produced only apo-enzyme.
# DsaD/E lysates = test: Analytical-scale H/D exchange with pre-dialyzed DsaD and DsaE lysates; format: biochemical, Streptomyces scopuliridis; conditions: lysates pre-dialyzed into D2O—Na3PO4 buffer pD 8.4, 99.9% D
# Procedure: FIG. 6. Deuteration of L-Leu under conditions with minimal H2O contamination (99.9% D) using DsaD and DsaE lysates that were pre-dialyzed in 50 mM D2O—Na3PO4 (pD 8.4). Reactions performed using the described procedure for analytical-scale H/D exchange. Results are reported as the average of 3 trials.
# as §1
# Exchange of DsaD and DsaE into D2O—Na3PO4 buffer system: When necessary, clarified lysates and purified proteins were exchanged into a D2O-based buffer system containing 50 mM Na3PO4 (−) using a Slide-A-Lyzer MINI dialysis device (ThermoFisher) with a 3 KDa cutoff. A maximum of 500 μL of lysate or protein was added to the device and exchanged 3 times into the D2O buffer at 4° C. before setting up reactions.
# [1] = target: T1, DsaE with native E. coli BCATs (Escherichia coli, UniProt P0AB80); test: Analytical-scale H/D exchange with DsaE lysate only; format: biochemical; conditions: 5% v/v DsaE lysate, no DsaD
# T1 construct: DsaE can utilize native BCATs present at biological concentrations (without overexpression) to perform H/D exchange; made in house; host or cells: Clarified lysate of E. coli BL21(DE3) overexpressing DsaE; the BCAT is endogenous to the host
# T1 sequence (P0AB80 2-309 E236D): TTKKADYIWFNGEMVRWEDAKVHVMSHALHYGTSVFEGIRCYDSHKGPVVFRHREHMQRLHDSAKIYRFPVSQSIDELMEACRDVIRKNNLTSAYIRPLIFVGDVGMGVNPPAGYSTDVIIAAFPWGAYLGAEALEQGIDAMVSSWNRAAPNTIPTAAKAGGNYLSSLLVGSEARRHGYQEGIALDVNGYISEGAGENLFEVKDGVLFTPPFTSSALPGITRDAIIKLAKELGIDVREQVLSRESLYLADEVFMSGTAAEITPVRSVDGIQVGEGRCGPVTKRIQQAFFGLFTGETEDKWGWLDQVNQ
# T1 sequence (as listed by the source, change not shown): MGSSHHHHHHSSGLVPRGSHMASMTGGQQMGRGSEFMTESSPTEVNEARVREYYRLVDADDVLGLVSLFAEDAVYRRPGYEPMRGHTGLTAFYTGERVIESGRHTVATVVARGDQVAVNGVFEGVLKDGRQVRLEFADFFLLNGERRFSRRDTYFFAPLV
# Procedure: (§2) FIG. 7. Deuteration of L-Leu using only DsaE lysate (5% v/v) with minimal H2O contamination (99.9% D). Reactions were performed using the described procedure for analytical-scale H/D exchange. Results are reported as the average of 3 trials.
# (§3) In another version, DsaE operates with a BCAT enzyme other than DsaD to effect a Cα/Cβ-exchange. For example, DsaE clarified cell lysates (CCLs) can achieve Cα and Cβ-deuteration without the addition of the aminotransferase DsaD. Instead of relying on DsaD as a partner for catalysis, DsaE promiscuously interacts with native branched-chain amino acid aminotransferases (BCATs) expressed by E. coli (SEQ ID NO: 2) for primary metabolism. No overexpression of BCAT is necessary to induce this activity. We simply overexpressed partner protein DsaE and generated a clarified cell lysate from the resulting E. coli. […] The reaction is as follows:
# as §1, with “Precipitated biomolecules were pelleted by centrifugation (16,000×g, 10 min) and samples were processed as described below.” left out
# [2] = target: T2, DsaE with native E. coli BCATs (Escherichia coli, UniProt P0AB80, E236D); test: as above; format: biochemical; conditions: 5% v/v DsaE lysate, no DsaD
# T2 construct: DsaE can utilize native BCATs present at biological concentrations (without overexpression) to perform H/D exchange; made in house; host or cells: Clarified lysate of E. coli BL21(DE3) overexpressing DsaE; the BCAT is endogenous to the host
# T2 sequence (P0AB80 2-309 E236D): as the sequence (P0AB80 2-309 E236D) above
# T2 sequence (as listed by the source, stated change not applied): as the sequence (as listed by the source, change not shown) above
# Procedure: as §2, §3
# as §1, with “Precipitated biomolecules were pelleted by centrifugation (16,000×g, 10 min) and samples were processed as described below.” left out
smiles,measurement,setting,value
"CC(C)C[C@H](N)C(=O)O [Leu, leucine]",deuterium labeling at Cβ,DsaD-MfnH protein pair,58%
same,exchange at Cα,DsaD-MfnH protein pair,93%
same,D-incorporation at Cα,DsaD/E lysates,> 99%
same,D-incorporation at Cβ,DsaD/E lysates,98%
same,deuterium incorporation at Cβ,[1],70%
same,labeling at Cα,[2],> 95%
